Assay results taken from ChEMBL document CHEMBL2406941, “Discovery of 'molecular switches' within a GIRK activator scaffold that afford selective GIRK inhibitors” (Bioorg Med Chem Lett, 2013).

Experiment: Activation of GIRK (unknown origin)
Design: species or system Homo sapiens

## C[C@@H]1O[C@@H](O[C@H]2[C@H](Oc3cc(O)c4c(c3)O[C@H](c3ccc(O)cc3)CC4=O)O[C@H](CO)[C@@H](O)[C@@H]2O)[C@H](O)[C@H](O)[C@H]1O [NARINGIN]
  EC50: > 100 µM
